Entries after “also recorded” stand apart in the source; their conditions may differ.
What was measured:
Dmpk^480/480 mice = assay: RT-PCR splicing rescue in Dmpk480/480 DM1 mouse model (choroid plexus/CNS); format: in vivo; conditions: for RT-PCR splicing rescue of Lnf2 exon22: choroid plexus of Dmpk^480/480 mice (N=2), 10 mg/kg, FIG. 8B
Excerpt: (§1) New MPCs, including HM33, are being systematically designed to study bioavailability. […] Systematic modification of current MPCs (See e.g., FIGS. 5A and 5B) is used to assess the contribution of each change to bioavailability with the goal of improving BBB and other organ penetration.
(§2) Short-term Studies: To select excellent candidates for long-term studies, cohorts (N=6) of one-month old age- and gender-matched animals from both muscle (homozygous HSALR/LR or heterozygous HSAXLR) and brain (Dmpk480/480) mouse models are treated. Both transgenic (N=6) and matching wild-type (N=6) mice are treated every two days at 3 different concentrations of lead MPCs (2, 5 and 10 mg/kg) or PBS via IP injection for a period of 1 week. The 48-hour injection schedule and starting concentrations are based upon previous treatment regimens and preliminary pharmacokinetic analysis. However, the schedule or treatments is subject to change depending upon the candidate compound's history and performance in e.g., Steps 1 and 2 of FIG. 1. After 1 week of treatment, mice are tested for health (body weight, body condition score) then sacrificed, and muscle tissue (tibialis anterior, vastus lateralis, liver, kidney & brain) harvested and tested for in vivo changes in molecular (foci, splicing and MBNL1 colocalization) and histopathological features (central nuclei, HSA-based models only). To assess molecular features, frozen muscle samples are tested for: mis-splicing changes (RT-PCR and RNAseq); transgene and endogenous DMPK expression (qRT-PCR); off-target effects (RNAseq); RNA foci (FISH); MBNL1 colocalization (FISH/IF); CLCN1 staining (IF); and central nuclei (H&E). Frozen muscle and brain samples from each mouse model are analyzed by UPLC-MS/MS to determine preliminary bioavailability, which is correlated with molecular activity (muscle only for HSA-based and brain only for DMPK480/480) to assess therapeutic potential.

DM1 fibroblast = assay: MTT cell viability in DM1 fibroblast; format: cell-based, human; conditions: for MTT cell viability: DM1 fibroblast, low micromolar concentrations, FIG. 2C
Procedure: (§3) FIG. 2A presents the chemical structures of furamidine, HM19A and HM19B. […] (ANOVA two-tailed test, *p<0.05 and **p<0.01).
Effects on cellular health: To monitor the overall health of cells, treated vs. untreated control and DM patient fibroblast and myoblast/myotube lines are tested across a dose range where one observes a reduction in toxic CUG/CCUG RNA levels and rescue of mis-splicing. Cell health is monitored using the lactate dehydrogenase (LDH) and methylthiazol tetrazolium (MTT) assays, to measure membrane integrity (cell death) and metabolic activity (cell viability), along with monitoring rates of cell growth. Mutagenicity is assessed using the Ames test. Alterations in cell death, cell viability and rates of cell growth and mutagenicity is combined with data from control cells to determine the overall effect on cell health due to MPC treatment. As shown in FIGS. 2A-2E, HM19B rescues splicing at more than 50-fold lower concentrations than at concentrations where cell death is starting to be observed.

DM1 fibroblasts = assay: RT-PCR analysis of INSR exon 11 mis-splicing in DM1 fibroblasts; format: cell-based, human; conditions: FIG. 2B
Procedure: as §3
(§4) DM splicing panel analysis: MPCs are evaluated starting with HM19A &19B in control and DM cells using a 5-point dose-response treatment. Data from the characterization of multiple DM1 & DM2 fibroblast supports this splicing panel and the utility of fibroblasts as a screening tool (See FIGS. 7A-E).

DM2 fibroblasts = assay: RT-PCR analysis of INSR exon 11 mis-splicing in DM2 fibroblasts; format: cell-based, human; conditions: FIG. 2B
Procedure: as §3, §4

DM1 and DM2 cell lines = assay: Splicing rescue and toxicity in DM1 and DM2 patient-derived cell lines; format: cell-based, human; conditions: DM fibroblasts and myotubes; nanomolar range where stated
Excerpt: Referring to FIG. 1, Step 2, a process flow includes characterizing the best-in-class MPCs for in cellulo activity and therapeutic potential. Rationale and preliminary data: Because of the multisystemic nature of pathogenesis in myotonic dystrophy, it is desirable to evaluate the therapeutic potential of excellent MPCs in multiple DM cellular models as well as in control models in order to best prioritize compounds for in vivo testing. The cellular activity of MPC lead panel is systematically evaluated starting with HM19A & HM19B in 2 independent DM1 and DM2 patient-derived fibroblast lines and 2 independent DM1 myoblast/myotube differentiation models along with age and gender-matched control cell lines. Potential blood brain barrier penetrance is evaluated using the established MDR1-MDCK monolayer assay. This aim will facilitate the informed selection of the top performing compounds in cellular studies for testing in animal models of DM (See e.g., FIG. 1, step 3).
as §4

HSA^LR/LR mice = assay: RT-PCR splicing rescue in HSALR/LR DM1 mouse model (muscle); format: in vivo; conditions: for rescue of mis-splicing (DM1 splicing) in HSALR mice: HSALR mouse model; for RT-PCR splicing rescue of Atp2a1 exon 22: TA muscle of HSA^LR/LR mice (N=2), 7 days, FIG. 8A
Excerpt: as §1
as §2, with “The” for “Short-term Studies: To select excellent candidates for long-term studies, cohorts (N=6) of one-month old age- and gender-matched animals from both muscle (homozygous HSALR/LR or heterozygous HSAXLR) and brain (Dmpk480/480) mouse models are treated. Both transgenic (N=6) and matching wild-type (N=6) mice are treated every two days at 3 different concentrations of lead MPCs (2, 5 and 10 mg/kg) or PBS via IP injection for a period of 1 week. The”

CUG repeat RNA = assay: Circular dichroism (CD) spectroscopy with CUG repeat RNA; format: binding
DM1 myoblasts = assay: RT-PCR analysis of mis-splicing events in DM1 myoblasts; format: cell-based, human; conditions: nanomolar concentrations, FIG. 2D
Excerpt: as §3

patient-derived myotubes = assay: DM1 splicing rescue in patient-derived myotubes; format: cell-based, human

| Compound | RT-PCR splicing rescue of Lnf2 exon22 (Dmpk^480/480 mice) | MTT cell viability (DM1 fibroblast) | rescue of INSR exon 11 mis-splicing (DM1 fibroblasts) | rescue of INSR exon 11 mis-splicing (DM2 fibroblasts) | splicing rescue in patient-derived cell lines (DM1 and DM2 cell lines) | rescue of mis-splicing (DM1 splicing) in HSALR mice (HSA^LR/LR mice) | RT-PCR splicing rescue of Atp2a1 exon 22 (HSA^LR/LR mice) | interaction with CUG repeat RNA by CD spectroscopy (CUG repeat RNA) | concentration margin between splicing rescue and concentrations where cell death is starting to be observed (DM1 fibroblast; FIGS. 2A-2E) | rescue of MBNL1 exon 5 mis-splicing (DM1 myoblasts) | rescue of MBNL2 exon 5 mis-splicing (DM1 myoblasts) | rescue in the CNS compared to DB829 (Dmpk^480/480 mice; Dmpk^480/480 mice, FIG. 8C) | rescue in the Dmpk480/480 mice (Dmpk^480/480 mice; early preliminary data) | rescue of DM1 splicing (patient-derived myotubes) |
| --- | --- | --- | --- | --- | --- | --- | --- | --- | --- | --- | --- | --- | --- | --- |
| N=C(N)c1ccc(-c2ccc(-c3ccc(C(=N)N)cn3)o2)nc1 [DB829, reference compound] | splicing rescue |  |  |  |  |  |  |  |  |  |  |  |  |  |
| c1ccc2[nH]c(-c3ccc(-c4ccc(-c5ccc(-c6nc7ccccc7[nH]6)cc5)o4)cc3)nc2c1 [HM19A] |  | no effect on viability | strong rescue | strong rescue | significantly rescuing mis-splicing | significantly rescuing mis-splicing | splicing rescue |  |  |  |  |  |  |  |
| CN1CCN(c2ccc3nc(-c4ccc(-c5ccc6c(c5)oc5cc(-c7ccc(-c8nc9ccc(N%10CCN(C)CC%10)cc9[nH]8)cc7)ccc56)cc4)[nH]c3c2)CC1 [HM19B] | splicing rescue | no effect on viability | strong rescue | strong rescue | splicing rescue at the nanomolar concentration; also recorded: significantly rescuing mis-splicing | significantly rescuing mis-splicing | splicing rescue | surface interaction between ligand and substrate | more than 50 fold | promising rescue | promising rescue | reduced rescue | capable of rescue |  |
| COc1cc2c(c(OC)c1OC)-c1ccc(OC)c(=O)cc1[C@@H](NC(C)=O)CC2 [colchicine] |  |  |  |  |  |  |  |  |  |  |  |  |  | rescue DM1 splicing |
